Test [1] in a line: MITF Orthogonal Assay: SK-MEL-5 CTG Assay Measured in Cell-Based System Using Plate Reader - 2084-02_Inhibitor_Dose_DryPowder_Activity_Set7. It counts as functional.
Test [2] in a line: inhibitors of TRPM1-promoter reporter in SK-MEL-5 – cell-based, luciferase, dry powder, set 8, MITF inhibitor project, dose response (AID 624430). It counts as functional.
A short description of test [3]: MITF: Counter assay: A375 proliferation Measured in Cell-Based System Using Plate Reader - 2084-03_Inhibitor_Dose_DryPowder_Activity_Set8. It counts as functional. Conditions: A-375.
In test [4] the target is Nonstructural protein 1 (Influenza A virus, UniProt Q194T2). The format is functional, Influenza A virus (A/California/07/2009(H1N1)).
Sequence of Nonstructural protein 1 (Q194T2 whole entry): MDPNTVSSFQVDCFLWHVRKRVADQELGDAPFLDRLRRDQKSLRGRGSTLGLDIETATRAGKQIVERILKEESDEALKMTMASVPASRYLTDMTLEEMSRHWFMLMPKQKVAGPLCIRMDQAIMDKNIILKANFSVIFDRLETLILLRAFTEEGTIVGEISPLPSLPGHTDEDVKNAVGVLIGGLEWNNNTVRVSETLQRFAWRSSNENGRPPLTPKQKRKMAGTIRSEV
Test [5] deals with Matrix metalloproteinase-14 (Homo sapiens, UniProt P50281). Briefly: Dose Response confirmation of uHTS hits for a small molecule inhibitors of MT1-MMP activation in a fluorescence assay set 2. It counts as functional.
Test [6] can be described thus: viability loss in HepG2 hepatoma cells – cell-based, cherry-picks, set 5, cytotoxicity control, dose response (AID 1053118). It counts as functional.
Test [7] in a line: viability loss in A549 lung cancer cells – cell-based, cherry-picks, […], cytotoxicity control, dose response (AID 1053119). It counts as functional.
The nature of test [8]: viability loss in HEK293 kidney cells – cell-based, cherry-picks, set 5, cytotoxicity control, dose response (AID 1053117). The format is functional.
Test [9] addresses Mitogen-activated protein kinase 10 (Homo sapiens, UniProt P53779). The test is described as follows: Dose response biochemical screening assay for inhibitors of c-Jun N-Terminal Kinase 3 (JNK3). [Related pubchem assays: 746 ].
Test [10] in a line: cells. Conditions: HEK293.
Test [11] is described as follows: toxicity to HepG2 liver cells – cell-based, plate reader, dry powder, set 6, cytotoxicity control, dose response (AID 743311). The format is functional.
The nature of test [12]: toxicity to A549 lung cells – cell-based, plate reader, dry powder, set 6, cytotoxicity control, dose response (AID 743312). It counts as functional.
The nature of test [13]: Late stage assay provider results from the probe development effort to identify selective inhibitors of heat shock protein 90 (HSP90): Absorbance-based cell proliferation assay in MCF7 cells. It counts as functional.
Test [14] is described as follows: Late stage assay provider results from the probe development effort to identify selective inhibitors of heat shock protein 90 (HSP90): Absorbance-based cell proliferation assay in SKBR3 cells. As to conditions: SK-BR-3. It counts as functional.
The target of test [15] is fMet-Leu-Phe receptor (Homo sapiens, UniProt P21462). The test is described as follows: formyl peptide receptor binders – dose response (AID 519). The format is functional.
Sequence of fMet-Leu-Phe receptor (P21462 whole entry): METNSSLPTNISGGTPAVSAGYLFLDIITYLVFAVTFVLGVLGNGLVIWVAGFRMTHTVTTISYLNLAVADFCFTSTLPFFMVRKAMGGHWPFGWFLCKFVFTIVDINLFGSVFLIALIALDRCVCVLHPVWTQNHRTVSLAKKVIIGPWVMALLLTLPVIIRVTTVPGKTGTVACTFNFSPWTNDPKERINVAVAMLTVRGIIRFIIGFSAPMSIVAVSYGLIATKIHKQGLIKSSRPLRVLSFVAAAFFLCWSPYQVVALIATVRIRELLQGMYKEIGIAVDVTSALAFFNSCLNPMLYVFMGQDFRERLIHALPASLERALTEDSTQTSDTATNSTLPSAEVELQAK
Test [16] in a line: embryonic kidney cell viability loss – CellTiter-Glo luminescence, dry powder, set 20, cytotoxicity control, dose response (AID 1117293). The format is functional, cell-based. As to conditions: HEK293. (Cellular ATP, detected with luciferase, serves as a proxy for viable cell number.)
The target in test [17] is Bifunctional protein GlmU (Mycobacterium tuberculosis, UniProt P9WMN3). Briefly: Inhibitors of Mycobacterial Glucosamine-1-phosphate acetyl transferase (GlmU). Secondary screen. The arrangement: species or system Mycobacterium tuberculosis H37Rv.
Sequence of Bifunctional protein GlmU (P9WMN3 whole entry): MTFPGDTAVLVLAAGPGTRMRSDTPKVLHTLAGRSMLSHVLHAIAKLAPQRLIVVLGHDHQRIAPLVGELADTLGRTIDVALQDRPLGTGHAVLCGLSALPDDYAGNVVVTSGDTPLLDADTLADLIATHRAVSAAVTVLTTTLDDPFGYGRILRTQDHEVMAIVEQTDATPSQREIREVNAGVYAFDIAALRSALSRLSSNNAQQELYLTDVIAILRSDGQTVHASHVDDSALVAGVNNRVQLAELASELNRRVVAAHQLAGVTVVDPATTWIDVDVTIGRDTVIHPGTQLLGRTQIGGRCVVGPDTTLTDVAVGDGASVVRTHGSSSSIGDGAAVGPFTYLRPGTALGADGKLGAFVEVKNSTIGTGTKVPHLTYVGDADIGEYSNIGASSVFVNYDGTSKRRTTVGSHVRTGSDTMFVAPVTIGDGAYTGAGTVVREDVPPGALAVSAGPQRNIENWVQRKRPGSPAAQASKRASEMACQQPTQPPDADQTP
Test [18] concerns HeLa. The test is described as follows: viability loss in HeLa cells – cell-based, ATP luminescence, cherry-pick samples, cytotoxicity control, dose response (AID 687004). It counts as functional. As to conditions: Homo sapiens.

Calls of active or inactive are those of the source.

Broadly, the AC50 is the concentration at which the activity in the assay is half-maximal. What is called IC50 is the concentration that gives 50% inhibition. In general, Ki refers to the equilibrium dissociation constant of an inhibitor or competing ligand from its target.

Sequence of Mitogen-activated protein kinase 10 (P53779 whole entry): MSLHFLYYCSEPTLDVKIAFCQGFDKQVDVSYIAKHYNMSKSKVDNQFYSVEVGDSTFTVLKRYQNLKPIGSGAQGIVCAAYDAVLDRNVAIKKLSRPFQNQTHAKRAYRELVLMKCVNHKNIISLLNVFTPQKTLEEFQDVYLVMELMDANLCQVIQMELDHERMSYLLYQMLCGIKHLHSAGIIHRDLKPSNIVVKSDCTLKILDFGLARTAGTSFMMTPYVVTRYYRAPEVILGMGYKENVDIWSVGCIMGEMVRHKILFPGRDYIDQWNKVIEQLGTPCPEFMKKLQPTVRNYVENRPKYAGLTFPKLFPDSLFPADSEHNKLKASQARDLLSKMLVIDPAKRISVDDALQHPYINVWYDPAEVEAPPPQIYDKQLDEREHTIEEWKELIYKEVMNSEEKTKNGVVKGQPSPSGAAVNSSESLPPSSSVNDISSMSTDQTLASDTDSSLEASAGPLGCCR

As for `O=C1C=C(Nc2cccc(C(F)(F)F)c2)C(=O)c2ccccc21`, the AC50 is 0.463 µM (active) in test [1], > 70 µM (inactive) in test [2] and > 70 µM (inactive) in [3].
Take `CCN1C(=O)/C(=C2\C=Cc3ccccc3N2CC)SC1=S`: the IC50 in test [4] is 4.15 µM (active); in test [5], > 80 µM (inactive).
Take `CO[C@H]1CN(C)C(=O)c2cc(NC(=O)Nc3ccc(Cl)c(Cl)c3)ccc2OC[C@H](C)NC[C@@H]1C`: the AC50 in test [6] was 13 µM (active); in test [7], 12.9 µM (active); in test [8], 12.8 µM (active).
Take `CC(=O)Oc1ccc(C(=O)Nc2nccs2)cc1`: the IC50 in test [9] was > 31 µM (not active).
For `Cc1cc2ncn(CCOc3ccc4c(c3)CCC4)c2cc1C`, the results for the AC50 in [10], in [11] and in [12] were 33 µM (active), > 52 µM (inactive) and 24.1 µM (active), respectively.
For the compound `O=C1OC(=O)/C(=C\NCCC2=CCCCC2)C=C1Br`, the figures for the concentration for half-maximal inhibition (IC50) in [13] and in test [14] were 3 µM (active) and 8 µM (active), respectively.
Consider `C=CCn1c(O)cc(=O)nc1SCCCC`, for which the Ki in test [15] was 30.3 µM (inactive).
In the case of `N#Cc1ccc(S(=O)(=O)Nc2cc(C(F)(F)F)ccc2N2CCCCC2)cc1`, the AC50 in test [16] is 46.1 µM (active).
Consider `Cc1nc(Nc2ccc(C(=O)O)cc2)nc(Nc2ccc(C(=O)O)cc2)c1[N+](=O)[O-]`, for which, in test [17], the half-inhibitory concentration (IC50) was 211 µM (active).
For `CC(C)NC(=O)Nc1ccc2c(c1)CC(=O)N([C@H](C)CO)C[C@H](C)[C@H](CN(C)S(=O)(=O)c1ccc(Cl)cc1)O2`, the AC50 in [18] is 37.9 µM (active).
